Experimental data reported in BindingDB's records for patent US10246444 (Sabila Biosciences, 2019).

Molecular target: Epidermal growth factor receptor [T790M,L858R] (Homo sapiens, UniProt P00533, L858R/T790M)
Assay: Kinase assay
Procedure: The assay is performed by combining three components: DNA-tagged kinase; immobilized ligand; and a test compound. The ability of the test compound to compete with the immobilized ligand is measured via quantitative PCR of the DNA tag.For most assays, kinase-tagged T7 phage strains were prepared in an E. coli host derived from the BL21 strain. E. coli were grown to log-phase and infected with T7 phage and incubated with shaking at 32° C. until lysis. The lysates were centrifuged and filtered to remove cell debris. The remaining kinases were produced in HEK-293 cells and subsequently tagged with DNA for qPCR detection. […] The liganded beads were blocked with excess biotin and washed with blocking buffer (SeaBlock (Pierce), 1% BSA, 0.05% Tween 20, 1 mM DTT) to remove unbound ligand and to reduce nonspecific binding. […] All reactions were performed in polystyrene 96-well plates in a final volume of 0.135 ml. […] The kinase concentration in the eluates was measured by qPCR.

Epidermal growth factor receptor [T790M,L858R], sequence (P00533 25-1210 T790M/L858R limits assumed): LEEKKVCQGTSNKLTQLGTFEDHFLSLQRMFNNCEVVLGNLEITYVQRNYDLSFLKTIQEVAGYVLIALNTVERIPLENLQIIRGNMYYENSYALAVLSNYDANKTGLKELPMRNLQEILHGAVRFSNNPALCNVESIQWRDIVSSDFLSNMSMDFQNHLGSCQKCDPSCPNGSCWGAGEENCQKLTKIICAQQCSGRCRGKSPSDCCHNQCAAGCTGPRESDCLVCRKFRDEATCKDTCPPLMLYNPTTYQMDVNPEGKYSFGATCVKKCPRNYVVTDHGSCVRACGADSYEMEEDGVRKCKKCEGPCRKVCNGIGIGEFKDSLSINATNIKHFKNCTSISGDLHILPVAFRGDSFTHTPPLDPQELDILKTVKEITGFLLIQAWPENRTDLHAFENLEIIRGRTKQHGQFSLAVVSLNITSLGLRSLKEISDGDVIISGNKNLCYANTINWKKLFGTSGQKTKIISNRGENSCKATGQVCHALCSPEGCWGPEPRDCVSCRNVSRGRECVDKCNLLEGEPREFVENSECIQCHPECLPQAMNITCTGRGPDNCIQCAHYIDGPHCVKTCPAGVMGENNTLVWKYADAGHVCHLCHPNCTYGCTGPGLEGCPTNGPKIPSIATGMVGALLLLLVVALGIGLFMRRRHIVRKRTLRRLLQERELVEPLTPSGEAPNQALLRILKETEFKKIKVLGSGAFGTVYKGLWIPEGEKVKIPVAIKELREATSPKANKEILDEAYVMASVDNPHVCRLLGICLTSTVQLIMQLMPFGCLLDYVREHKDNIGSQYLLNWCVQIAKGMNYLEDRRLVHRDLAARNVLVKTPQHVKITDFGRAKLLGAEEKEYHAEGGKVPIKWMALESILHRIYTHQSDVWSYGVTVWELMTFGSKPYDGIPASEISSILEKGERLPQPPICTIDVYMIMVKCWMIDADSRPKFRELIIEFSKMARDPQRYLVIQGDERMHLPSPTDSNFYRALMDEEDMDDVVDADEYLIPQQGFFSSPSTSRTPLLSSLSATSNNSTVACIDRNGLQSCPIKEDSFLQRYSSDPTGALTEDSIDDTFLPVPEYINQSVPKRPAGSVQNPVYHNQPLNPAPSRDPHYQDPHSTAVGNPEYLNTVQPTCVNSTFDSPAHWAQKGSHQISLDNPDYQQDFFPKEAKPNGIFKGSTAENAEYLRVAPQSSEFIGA

## CCOc1cc2ncc(C#N)c(Nc3ccc(OCc4cccc(F)c4)c(Cl)c3)c2cc1NC(=O)CC1CCSS1 (stereo unspecified) [US10246444, Example 40]
  Kd: > 10 µM
